# Experimental data as given in patent publication US9756861B2, “Micro-colloidal silicic acid / boric acid composition and a method of preparing a bioenhancing solution and powder” (Barlaa B.V., priority 2009, dated 2017).
# System: seeds of wheat
# Procedure: Different levels of silicic acid were tested on seeds and in pot experiments to assess their effects on improvement of seed and the growth and yield in wheat.
substance,measurement,setting,value
silicic acid,plant growth and yield,"0.25% and 0.50% silicic acid application, all the varieties of wheat",highest
same,rate of germination,"silicic acid applied at 0.25-0.50% level, wheat seeds",increased
